According to patent US20080280862A1, “Methods, compositions, and kits for the treatment of pain” (priority 2007, published 2008):

What was measured:
[1] = system: formalin-induced pain model in rats; test: Formalin pain model, nociceptive behaviors; format: in vivo, Sprague-Dawley rats; settings: Experiment One, amitriptyline
Experimental: The formalin model is a fast, reliable model used to assess potential analgesics ability to block inflammatory pain. The analgesic effects of test article combinations on pain generation are assayed using the formalin-induced pain model in rats. Adult male Sprague-Dawley rats are administered intraperitoneally study drugs (vehicle, TCA, steroid or TCA/Steroid test article combinations) once daily for 2 days (day −2 and day −1) and 30 minutes prior to the formalin injection day on day 0 (time=0). […] To elicit a pain response, dilute formalin (2% in saline) is injected under the skin of the plantar surface of the right hindpaw. The animal is placed in an observation chamber. The pain response is a characteristic biphasic response pattern of nociceptive behaviors (lifting, licking, and biting of the injected paw). Two distinct periods of nociceptive behaviors/activity are observed and recorded: an early phase (phase I) lasting the first 5-10 min and a late phase (phase II) lasting 20-40 min after the injection of formalin. One hour of data is collected (time spent displaying pain behavior) by a blinded observer using a stopwatch. Results are expressed as the number of pain behaviors per 5 minute periods (Table 8 and Table 9).

[2] = system: acetic acid-induced pain model in mice; test: Acetic acid pain model, writhes; format: in vivo, ICR mice
Experimental: The acetic acid is a reliable fast model for noxious/visceral pain usually used for screening potential drug candidates for their analgesic activity. The effects of test article combinations on pain generation are assayed using the acetic acid-induced pain model in mice. Adult male ICR mice are administered study drugs intraperitoneally (vehicle, TCA, steroid or TCA/Steroid test article combinations) once daily for 2 days (day −2 and day −1) and 30 minutes prior to the acetic acid injection on day 0 (time=0). […] To elicit a pain response, dilute acetic acid (10 ml/kg of 0.6% solution) is injected intraperitoneally into the abdomen. The animal is placed in an observation chamber, and 5 minutes after acetic acid administration, the number of writhes is counted and recorded over a five minute period by a blinded observer. A writhe is considered as a contraction of the abdominal muscles accompanied by an elongation of the body and extension of the hind limb. Results are expressed as number of writhes.

## CN(C)CCC=C1c2ccccc2CCc2ccccc21 [Amitriptyline]
[1]; 1 mg/kg, 5 minutes
  Mean number of behaviors per 5 minute block: 233.0 ± 10.0
[1]; 1 mg/kg, 10 minutes
  Mean number of behaviors per 5 minute block: 52.0 ± 23
[1]; 1 mg/kg, 15 minutes
  Mean number of behaviors per 5 minute block: 84.0 ± 28.0
[1]; 1 mg/kg, 20 minutes
  Mean number of behaviors per 5 minute block: 49.0 ± 39.0
[1]; 1 mg/kg, 25 minutes
  Mean number of behaviors per 5 minute block: 228.0 ± 31.0
[1]; 1 mg/kg, 30 minutes
  Mean number of behaviors per 5 minute block: 244.0 ± 19.0
[1]; 1 mg/kg, 35 minutes
  Mean number of behaviors per 5 minute block: 240.0 ± 17.0
[1]; 1 mg/kg, 40 minutes
  Mean number of behaviors per 5 minute block: 214.0 ± 27.0
[1]; 1 mg/kg, 45 minutes
  Mean number of behaviors per 5 minute block: 167.0 ± 31.0
[1]; 1 mg/kg, 50 minutes
  Mean number of behaviors per 5 minute block: 63.0 ± 23.0
[1]; 1 mg/kg, 55 minutes
  Mean number of behaviors per 5 minute block: 39.0 ± 21.0
[1]; 1 mg/kg, 60 minutes
  Mean number of behaviors per 5 minute block: 28.0 ± 23.0
[1]; 3 mg/kg, 5 minutes
  Mean number of behaviors per 5 minute block: 206.0 ± 16.2
[1]; 3 mg/kg, 10 minutes
  Mean number of behaviors per 5 minute block: 59.0 ± 23.2
[1]; 3 mg/kg, 15 minutes
  Mean number of behaviors per 5 minute block: 64.0 ± 21.6
[1]; 3 mg/kg, 20 minutes
  Mean number of behaviors per 5 minute block: 166.0 ± 36.7
[1]; 3 mg/kg, 25 minutes
  Mean number of behaviors per 5 minute block: 229.0 ± 29.4
[1]; 3 mg/kg, 30 minutes
  Mean number of behaviors per 5 minute block: 242.0 ± 27.6
[1]; 3 mg/kg, 35 minutes
  Mean number of behaviors per 5 minute block: 210.0 ± 35.9
[1]; 3 mg/kg, 40 minutes
  Mean number of behaviors per 5 minute block: 242.0 ± 30.3
[1]; 3 mg/kg, 45 minutes
  Mean number of behaviors per 5 minute block: 174.0 ± 36.0
[1]; 3 mg/kg, 50 minutes
  Mean number of behaviors per 5 minute block: 119.0 ± 45.0
[1]; 3 mg/kg, 55 minutes
  Mean number of behaviors per 5 minute block: 73.0 ± 36.6
[1]; 3 mg/kg, 60 minutes
  Mean number of behaviors per 5 minute block: 47.0 ± 26.9
[1]; 10 mg/kg, 5 minutes
  Mean number of behaviors per 5 minute block: 217.0 ± 18.1
[1]; 10 mg/kg, 10 minutes
  Mean number of behaviors per 5 minute block: 16.0 ± 8.8
[1]; 10 mg/kg, 15 minutes
  Mean number of behaviors per 5 minute block: 45.0 ± 24.1
[1]; 10 mg/kg, 20 minutes
  Mean number of behaviors per 5 minute block: 84.0 ± 39.0
[1]; 10 mg/kg, 25 minutes
  Mean number of behaviors per 5 minute block: 128.0 ± 41.0
[1]; 10 mg/kg, 30 minutes
  Mean number of behaviors per 5 minute block: 151.0 ± 40.9
[1]; 10 mg/kg, 35 minutes
  Mean number of behaviors per 5 minute block: 152.0 ± 41.1
[1]; 10 mg/kg, 40 minutes
  Mean number of behaviors per 5 minute block: 138.0 ± 39.4
[1]; 10 mg/kg, 45 minutes
  Mean number of behaviors per 5 minute block: 67.0 ± 26.7
[1]; 10 mg/kg, 50 minutes
  Mean number of behaviors per 5 minute block: 70.0 ± 27.8
[1]; 10 mg/kg, 55 minutes
  Mean number of behaviors per 5 minute block: 42.0 ± 13.8
[1]; 10 mg/kg, 60 minutes
  Mean number of behaviors per 5 minute block: 45.0 ± 25.2
[1]; 20 mg/kg, 5 minutes
  Mean number of behaviors per 5 minute block: 168.0 ± 24.3
[1]; 20 mg/kg, 10 minutes
  Mean number of behaviors per 5 minute block: 41.0 ± 22.4
[1]; 20 mg/kg, 15 minutes
  Mean number of behaviors per 5 minute block: 1.0 ± 0.9
[1]; 20 mg/kg, 20 minutes
  Mean number of behaviors per 5 minute block: 13.0 ± 10.2
[1]; 20 mg/kg, 25 minutes
  Mean number of behaviors per 5 minute block: 32.0 ± 13.7
[1]; 20 mg/kg, 30 minutes
  Mean number of behaviors per 5 minute block: 81.0 ± 34.3
[1]; 20 mg/kg, 35 minutes
  Mean number of behaviors per 5 minute block: 93.0 ± 41.3
[1]; 20 mg/kg, 40 minutes
  Mean number of behaviors per 5 minute block: 85.0 ± 37.2
[1]; 20 mg/kg, 45 minutes
  Mean number of behaviors per 5 minute block: 99.0 ± 34.0
[1]; 20 mg/kg, 50 minutes
  Mean number of behaviors per 5 minute block: 82.0 ± 33.8
[1]; 20 mg/kg, 55 minutes
  Mean number of behaviors per 5 minute block: 66.0 ± 36.8
[1]; 20 mg/kg, 60 minutes
  Mean number of behaviors per 5 minute block: 59.0 ± 31.1
[2]; 1 mg/kg ip
  Mean # of writhes per 5 minutes ± SEM: 8.71 ± 2.44
[2]; 3 mg/kg ip
  Mean # of writhes per 5 minutes ± SEM: 11.62 ± 2.94
[2]; 5 mg/kg ip
  Mean # of writhes per 5 minutes ± SEM: 4.50 ± 2.04
[2]; 10 mg/kg ip
  Mean # of writhes per 5 minutes ± SEM: 0.79 ± 0.79
